Some test systems named below: LOX IMVI; SN12C; MCF7; SW-620; K562; HOP-92; NCI-H23; M14; COLO 205; BT-549; SF-539; MOLT-4; RXF 393; Hs-578T; PC-3; IGROV-1; MDA-MB-435; HCC 2998; 786-0; SK-OV-3.
Holding throughout (assay): inhibition of tumour cell growth, NCI panel, 48 h

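Assay format: 96-well plates, 48-hour exposure. GI50: concentration for 50% inhibition of growth.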 The source made the active and inactive calls. No stated cut-off is given here; in the data, active = GI50 up to about 1.1 µM and inactive = higher.

The text below walks through data of ChEMBL document CHEMBL1201862, “PubChem BioAssay data set” (2004).

As to `O=C(NC1(C(=O)O)CCCC1)c1ccccc1`, the GI50 in the assay on LOX IMVI, in the assay on SN12C, in the assay with MCF7, in the assay with SW-620, in the assay with K562 and in the assay with HOP-92 was > 100 µM (inactive) in each case. The GI50 in the assay with NCI-H23, in the assay on M14, with COLO 205, in the assay on BT-549, in the assay on SF-539 and in the assay with MOLT-4 was > 100 µM (inactive) in each case. The GI50 with RXF 393, in the assay on Hs-578T, with PC-3, with IGROV-1, in the assay with MDA-MB-435 and in the assay with HCC 2998 was > 100 µM (inactive) throughout. In addition, the GI50 in the assay with 786-0 and with SK-OV-3 was > 100 µM (inactive) in each case.
For `O=C1N/C(=N\N=C\c2ccccc2)C(c2ccccc2)O1` (stereo not given), the GI50 is 42.8 µM (inactive) in the assay with LOX IMVI; 71.1 µM (inactive) in the assay on SN12C; 68.4 µM (inactive) in the assay on MCF7; 59.4 µM (inactive) in the assay with SW-620; 35.8 µM (inactive) in the assay on K562; > 100 µM (inactive) in the assay with HOP-92. In addition, the GI50 was > 100 µM (inactive) with NCI-H23; 54 µM (inactive) in the assay on M14; 40.9 µM (inactive) in the assay with COLO 205; 33 µM (inactive) with BT-549; > 100 µM (inactive) in the assay with SF-539; 25.5 µM (inactive) with MOLT-4. In addition, the GI50 in the assay with RXF 393 was 80 µM (inactive); in the assay on Hs-578T, > 100 µM (inactive); with PC-3, 61.8 µM (inactive); in the assay with IGROV-1, > 100 µM (inactive); in the assay with MDA-MB-435, > 100 µM (inactive); in the assay on HCC 2998 it was 17.1 µM (inactive). In addition, the values for the GI50 in the assay on 786-0 and in the assay with SK-OV-3 were 47.9 µM (inactive) and > 100 µM (inactive), respectively.
For `CN(C)CCNC(=O)c1cccc2nc3c4ccccc4c4ccccc4c3nc12`, the GI50 with LOX IMVI is 1.64 µM (inactive); in the assay on SN12C, 1.92 µM (inactive); in the assay with MCF7 it was 1.14 µM (inactive); in the assay with SW-620 it was 1.58 µM (inactive); in the assay on K562 it was 1.52 µM (inactive); in the assay with HOP-92 it was 7.82 µM (inactive). Also, the GI50 in the assay with NCI-H23 is 1.87 µM (inactive); with M14, 2.29 µM (inactive); in the assay with COLO 205, 3.89 µM (inactive); with BT-549 it was 2.65 µM (inactive); with SF-539, 1.72 µM (inactive); with MOLT-4, 0.748 µM (active). Also, the GI50 in the assay with RXF 393 was 2.06 µM (inactive); in the assay with Hs-578T, 1.31 µM (inactive); in the assay with PC-3, 1.65 µM (inactive); in the assay on IGROV-1 it was 3.38 µM (inactive); with MDA-MB-435 it was 1.81 µM (inactive); with HCC 2998 it was 5.27 µM (inactive). Besides, the figures for the GI50 with 786-0 and in the assay with SK-OV-3 were 2.28 µM (inactive) and 6.52 µM (inactive), respectively.
For the compound `Cc1ccc(C(=O)C(Cl)C(Cl)c2ccc(C)cc2)cc1` (stereo not given), the GI50 with LOX IMVI is 1.87 µM (inactive); in the assay with SN12C, 1.82 µM (inactive); in the assay with MCF7, 4.56 µM (inactive); in the assay with SW-620, 2.39 µM (inactive); in the assay on K562, 1.49 µM (inactive); in the assay with HOP-92 it was 2.4 µM (inactive). For the same compound, the GI50 in the assay with NCI-H23 is 9.38 µM (inactive); in the assay with M14, 4.71 µM (inactive); in the assay with COLO 205, 2.07 µM (inactive); in the assay with BT-549 it was 3.78 µM (inactive); in the assay on SF-539 it was 2.49 µM (inactive); with MOLT-4 it was 2.03 µM (inactive). For the same compound, the GI50 in the assay on RXF 393 was 7.46 µM (inactive); in the assay with Hs-578T it was 21.8 µM (inactive); in the assay with PC-3, 5 µM (inactive); in the assay on IGROV-1, 2.58 µM (inactive); in the assay on MDA-MB-435 it was 2.97 µM (inactive); in the assay with HCC 2998 it was 2.03 µM (inactive). Also, the GI50 with 786-0 was 2.03 µM (inactive); with SK-OV-3 it was 15.2 µM (inactive).
For `O=C(c1ccccc1)C(Nc1ccc2ccccc2c1)c1ccccc1` (stereo not given), the GI50 in the assay on LOX IMVI is 35.3 µM (inactive); in the assay with SN12C, 26.9 µM (inactive); with MCF7, 12.7 µM (inactive); in the assay on SW-620, 27.7 µM (inactive); in the assay with K562, 7.36 µM (inactive); with HOP-92, 41.7 µM (inactive). In addition, the GI50 is 24.4 µM (inactive) in the assay on NCI-H23; 31.3 µM (inactive) in the assay on M14; 17.6 µM (inactive) in the assay on COLO 205; 32.1 µM (inactive) with BT-549; 54.2 µM (inactive) in the assay on SF-539; 8.41 µM (inactive) in the assay on MOLT-4. The GI50 was > 43.9 µM (inactive) in the assay with RXF 393; 40.2 µM (inactive) in the assay on Hs-578T; 17.6 µM (inactive) in the assay on PC-3; 29.7 µM (inactive) in the assay with IGROV-1; 4.85 µM (inactive) in the assay on MDA-MB-435; 20.7 µM (inactive) in the assay with HCC 2998. The GI50 in the assay with 786-0 is 36.7 µM (inactive); in the assay with SK-OV-3 it was 40.7 µM (inactive).
As for `CN(C)c1ccc2nc(CC(O)(C(F)(F)F)C(F)(F)F)ccc2c1`, the GI50 in the assay on LOX IMVI, with SN12C, in the assay on MCF7, with SW-620, in the assay on K562 and with HOP-92 was > 10 µM (inactive) throughout. Moreover, the GI50 with NCI-H23, in the assay with M14, with COLO 205, with BT-549, in the assay with SF-539 and in the assay on MOLT-4 was > 10 µM (inactive) throughout. The GI50 with RXF 393, in the assay with Hs-578T, with PC-3, in the assay on IGROV-1, in the assay with MDA-MB-435 and in the assay on HCC 2998 was > 10 µM (inactive) throughout. Moreover, the GI50 with 786-0 and in the assay with SK-OV-3 was > 10 µM (inactive) each time.
Take `C=C1C(=O)OC2/C=C(\C)CC/C=C(\C)CC(OC(=O)/C(=C/CO)CO)[C@@H]12` (stereo not given in full): the GI50 was 16 µM (inactive) with LOX IMVI; 13.6 µM (inactive) in the assay with SN12C; 4.46 µM (inactive) with MCF7; 1.69 µM (inactive) in the assay on SW-620; 2.65 µM (inactive) in the assay on K562; 4.93 µM (inactive) with HOP-92. Further, the GI50 is 13.7 µM (inactive) with NCI-H23; 3.9 µM (inactive) in the assay on M14; 2.2 µM (inactive) in the assay on COLO 205; 12.1 µM (inactive) in the assay with BT-549; 12.2 µM (inactive) in the assay with SF-539; 2.14 µM (inactive) in the assay with MOLT-4. Further, the GI50 with RXF 393 was 7.19 µM (inactive); in the assay with Hs-578T, 27.2 µM (inactive); with PC-3, 16.9 µM (inactive); in the assay with IGROV-1 it was 10.5 µM (inactive); in the assay with MDA-MB-435, 5.75 µM (inactive); in the assay with HCC 2998, 18.7 µM (inactive). Moreover, the GI50 in the assay with 786-0 is 4.84 µM (inactive); in the assay on SK-OV-3, 56 µM (inactive).
As for `COc1cccc2c1C(=O)c1c(O)c3c(c(O)c1C2=O)C[C@@](O)(C(=O)CO)CC3OC1CC(N)C(OC2CCCCO2)C(C)O1` (stereo not given in full), the GI50 with LOX IMVI is 0.356 µM (active); in the assay with SN12C, 1.27 µM (inactive); in the assay on MCF7, 0.001 µM (active); with SW-620 it was 0.265 µM (active); in the assay on K562, 0.646 µM (active); with HOP-92, 0.0715 µM (active). The GI50 in the assay on NCI-H23 was 0.478 µM (active); with M14, 1.2 µM (inactive); with COLO 205, 1.21 µM (inactive); in the assay with BT-549, 0.176 µM (active); in the assay on SF-539, 0.267 µM (active); with MOLT-4 it was 0.0315 µM (active). Further, the GI50 with RXF 393 was 1.48 µM (inactive); with Hs-578T, 0.164 µM (active); with PC-3, 0.0461 µM (active); with IGROV-1, 0.929 µM (active); in the assay with MDA-MB-435, 0.0807 µM (active); in the assay with HCC 2998, 7.19 µM (inactive). Also, the GI50 was 0.272 µM (active) in the assay on 786-0 and 0.807 µM (active) in the assay with SK-OV-3.
